Assay results published in paper PMC7349657, “Efficient Targeted Degradation via Reversible and Irreversible Covalent PROTACs” (Journal of the American Chemical Society, 2020).
Values belong to the molecule of their own block, whether it stands above or below them.

What was measured:
[1] = target: T1, BTK (Homo sapiens, UniProt Q06187); experiment: Mechanism validation: pretreatment with ibrutinib, thalidomide-OH or bortezomib before PROTAC in Mino cells; assay type: cell-based; design: endogenous in cells; host or cells: Mino (ATCC CRL-3000), Ramos (ATCC CRL-1596), K562 (NCI-60)
T1 sequence (Q06187 whole entry): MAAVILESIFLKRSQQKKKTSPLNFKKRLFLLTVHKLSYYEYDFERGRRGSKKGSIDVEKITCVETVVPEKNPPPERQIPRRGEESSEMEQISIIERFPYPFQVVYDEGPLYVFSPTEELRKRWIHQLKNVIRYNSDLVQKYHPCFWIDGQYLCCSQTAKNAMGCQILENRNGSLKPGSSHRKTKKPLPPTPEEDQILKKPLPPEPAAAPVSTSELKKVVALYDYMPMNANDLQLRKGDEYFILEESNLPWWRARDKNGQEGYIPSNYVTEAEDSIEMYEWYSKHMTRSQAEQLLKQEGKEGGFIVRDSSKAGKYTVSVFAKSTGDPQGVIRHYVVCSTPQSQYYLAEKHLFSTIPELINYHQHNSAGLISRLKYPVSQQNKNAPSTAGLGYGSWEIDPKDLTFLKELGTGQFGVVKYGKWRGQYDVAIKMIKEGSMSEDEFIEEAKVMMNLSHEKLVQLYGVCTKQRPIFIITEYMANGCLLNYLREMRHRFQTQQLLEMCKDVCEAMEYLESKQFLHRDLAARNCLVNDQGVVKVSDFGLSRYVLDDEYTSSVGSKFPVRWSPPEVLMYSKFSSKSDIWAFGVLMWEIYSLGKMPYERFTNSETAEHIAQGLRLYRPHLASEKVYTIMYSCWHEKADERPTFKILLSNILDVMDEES

[2] = target: wild-type BTK (Homo sapiens, UniProt Q06187); experiment: In vitro kinase activity assay, wild-type BTK (Nanosyn)
Sequence of wild-type BTK (Q06187 whole entry, species assumed): as the sequence (Q06187 whole entry) above

[3] = target: T1, BTK; experiment: BTK degradation in Mino cells, dose-response Western blot; assay type: cell-based; design: endogenous in cells; host or cells: Mino (ATCC CRL-3000), Ramos (ATCC CRL-1596), K562 (NCI-60); details: MINO, 24 h, read-out: Dmax (maximal degradation)
Protocol: We evaluated the ability of the compounds to induce degradation of BTK in human cell lines. We incubated Mino cells with the compounds and followed BTK levels after 24 h by Western blot (Figure 2, Supporting Figure 2). […] The irreversible acrylamides IR-1 and IR-2 and the cyanoacrylamide RC-3 followed closely with DC50’s under 10 nM and Dmax near 90%. […] We conducted metabolomics studies to estimate if cellular penetration and stability may contribute to the relative potencies (Supporting Table 2). NC-1 and RC-3 reached an effective concentration that was ∼2 times higher than IR-2 and ∼10 times higher than RC-2. Therefore, the lower potency of RC-2 can at least in part be explained by lower permeability or stability.
Figure 2 Efficient BTK degradation in cells. (A) Western blot evaluation of BTK levels in Mino cells in response to various concentrations of RC-2, IR-2, NC-1, and RC-3, after 24 h of incubation. (B) Quantification of BTK levels in (A) by normalization to the β-actin house-keeping gene in Mino cells. DC50 and Dmax were calculated by fitting the data to a second-order polynomial using Prism software. (C) Summary of the DC50 and Dmax values for the PROTACs in Mino cells described in (A) and Supporting Figure 2. TEXT PRINTED IN THE PICTURE: (C) NC-1: DC50 (nM): 2.2; Dmax (%): 97 | (C) IR-1: DC50 (nM): 8.6; Dmax (%): 91 | (C) IR-2: DC50 (nM): 1.9; Dmax (%): 88 | (C) RC-1: DC50 (nM): 10; Dmax (%): 68 | (C) RC-2: DC50 (nM): 35; Dmax (%): 66 | (C) RC-3: DC50 (nM): 6; Dmax (%): 85
(§1) Ramos (ATCC, CRL-1596), Mino (ATCC, CRL-3000), or K562 (NCI-60) cell lines were counted and diluted to 10^6 cell/mL, using 1 mL per well in a 24-well plate, and U2OS (ATCC HTB-96) cells overexpressing human BTK WT or C481S mutant were grown using 2 mL in a six-well plate (see Supporting Information). Cells were incubated with 1% DMSO or compound in indicated concentrations for 24 h unless indicated differently, or cells were left untreated. Lysates were prepared as previously described,[29] and samples were measured for total protein quantification by bicinchoninic acid (BCA) assay (#23225 ThermoFisher Scientific) supplemented with 4× loading buffer including 20 mM DTT, heated to 70 °C for 10 min, loaded into 4% SDS-PAGE gel, run for 45 min at 140 mV, then transferred into a nitrocellulose membrane (Biorad) using a Trans-Blot Turbo transfer system (Biorad). The membrane was stained with Ponceau (Sigma) to validate transfer for 10 min in gentle agitation then destained for 1 h with MQ water. The membrane was blocked with Licor blocking buffer (LIC927-70001) for 1 h, washed three times for 5 min with TBS-T, incubated with primary antibody BTK (D3H5) rabbit mAb (CST; 8547 S) overnight (16 h) at 4 °C, washed three times for 5 min with TBS-T, and incubated with primary antibody against β-actin (CST; 3700) for 1 h at 25 °C. Membrane was washed three times for 5 min with TBS-T, incubated with fluorescent secondary antibodies anti-mouse IgG Alexa Fluor 647 (CST: 4410S) and anti-rabbit-IgG IRDye 800(LICOR: 926-32211) for 1 h, then washed three times for 5 min with TBS-T, dried, and immediately imaged and analyzed using Licor Odyssey CLx. Prism (GraphPad) software was used to calculate degradation levels. We used second-order polynomial fits to estimate DC50 and Dmax values.

[4] = target: T1, BTK; experiment: Library screen of BTK abundance by Western blot in K562 or Mino cells; assay type: cell-based; design: endogenous in cells; host or cells: Mino (ATCC CRL-3000), Ramos (ATCC CRL-1596), K562 (NCI-60); details: 1 μM compound, 24 h
Protocol: We incubated K562 or Mino cells with 1 μM of the compounds for 24 h and measured the abundance of BTK by Western blot (Supporting Figure 1). […] On the basis of compound RC-1 we synthesized additional compounds (Figure 1), RC-2 with a CH2 group replacing the oxygen nearest the β-carbon, their analogous acrylamides IR-1 and IR-2, and the noncovalent analogue NC-1. We also synthesized the cyanoacrylamide RC-3 (Figure 1), replacing the Cα hydrogens with methyl groups. Similar dimethylated cyanoacrylamides were reported to have improved cellular permeability.[34]
Ramos (ATCC, CRL-1596), Mino (ATCC, CRL-3000), or K562 (NCI-60) cell lines were counted and diluted to 10^6 cell/mL, using 1 mL per well in a 24-well plate, and U2OS (ATCC HTB-96) cells overexpressing human BTK WT or C481S mutant were grown using 2 mL in a six-well plate (see Supporting Information). […] Lysates were prepared as previously described,[29] and samples were measured for total protein quantification by bicinchoninic acid (BCA) assay (#23225 ThermoFisher Scientific) supplemented with 4× loading buffer including 20 mM DTT, heated to 70 °C for 10 min, loaded into 4% SDS-PAGE gel, run for 45 min at 140 mV, then transferred into a nitrocellulose membrane (Biorad) using a Trans-Blot Turbo transfer system (Biorad). […]

[5] = target: T1, BTK; experiment: Time course of BTK degradation in Ramos and Mino cells; assay type: cell-based; design: endogenous in cells; host or cells: Mino (ATCC CRL-3000), Ramos (ATCC CRL-1596), K562 (NCI-60); details: 100 nM PROTAC, Ramos cells (RC-3: Mino cells)
Protocol: We followed the rate of BTK degradation facilitated by this compound series via a time course experiment in Ramos and Mino cells (Supporting Figure 3). The rates of degradation correlated well with the DC50 values observed after 24 h, with NC-1, IR-1, IR-2, and RC-3 degrading BTK within 2–4 h, while RC-2 and RC-1 required 6–24 h to reach maximum degradation.
as §1
Supplementary Figure 3: BTK degradation time dependency.
Ramos (PI3I, RC-1, I R-1, R C-2, I R-2, NC-1) or Mino ( RC-3) cells were treated with 100 nM of PROTAC or DMSO for indicated times, subsequently harvested for BTK levels measurement via western blot.
(1 picture or pasted object on this page, not shown here)

effect of proteasome inhibitor on PROTAC-mediated BTK degradation ([1]; 1 h bortezomib, then PROTAC 4 h): significantly inhibited degradation
SMILES: CC(C)C[C@H](NC(=O)[C@H](Cc1ccccc1)NC(=O)c1cnccn1)B(O)O [bortezomib]

effect of pretreatment on PROTAC-mediated BTK degradation ([1]; 2 h pretreatment, then PROTAC 24 h): hindered BTK degradation
SMILES: O=C1CCC(N2C(=O)c3cccc(O)c3C2=O)C(=O)N1 (stereo not drawn) [thalidomide-OH]

IC50 [2]: 12 nM
Dmax [3]: 68%
time to degrade BTK / reach maximum degradation [5]: 6 to 24 h
SMILES: N#CC(=CCOCCOCCOCCOCCOCCOc1cccc2c1C(=O)N(C1CCC(=O)NC1=O)C2=O)C(=O)N1CCCC(n2nc(-c3ccc(Oc4ccccc4)cc3)c3c(N)ncnc32)C1 (stereo not drawn) [RC-1]
BTK degradation (abundance of BTK by Western blot) [4]: consistent prominent levels of degradation in both cell lines
